Common to all, as to assay type: functional, cell-based
The test system of experiment [1] is HMEC. Description: The compound was tested for the ability to inhibit inducible cell adhesion molecule expression (ICAM-1) in primary human micro vascular cell line (HMEC-1).
Experiment [2] has as its system HMEC. Description: The compound was tested for the ability to inhibit inducible cell adhesion molecule expression (VCAM-1) in primary human micro vascular cell line (HMEC-1).
For experiment [3], the system named is HUVEC. Description: The compound was tested for the ability to inhibit inducible cell adhesion molecule expression (E-selectin) in primary human endothelial cell line (HUVEC).
In experiment [4] the test system is HUVEC. Description: The compound was tested for the ability to inhibit inducible cell adhesion molecule expression (ICAM-1) in primary human endothelial cell line (HUVEC).
For experiment [5], the system named is HUVEC. Put plainly: The compound was tested for the ability to inhibit inducible cell adhesion molecule expression (VCAM-1) in primary human endothelial cell line (HUVEC).
Experiment [6] concerns HMEC. Put plainly: The compound (derived from natural HUN-7293) was tested for the ability to inhibit inducible cell adhesion molecule expression (ICAM-1) in primary human micro vascular cell line (HMEC-1).
In experiment [7] the test system is HMEC. Put plainly: The compound (derived from natural HUN-7293) was tested for the ability to inhibit inducible cell adhesion molecule expression (VCAM-1) in primary human micro vascular cell line (HMEC-1).
Experiment [8] has as its system HMEC. Description: The compound (synthetic) was tested for the ability to inhibit inducible cell adhesion molecule expression (VCAM-1) in primary human micro vascular cell line (HMEC-1).
The subject of experiment [9] is HUVEC. Description: The compound (derived from natural HUN-7293) was tested for the ability to inhibit inducible cell adhesion molecule expression (E-selectin) in primary human endothelial cell line (HUVEC).
The test system of experiment [10] is HUVEC. Put plainly: The compound (derived from natural HUN-7293) was tested for the ability to inhibit inducible cell adhesion molecule expression (ICAM-1) in primary human endothelial cell line (HUVEC).
Experiment [11] has as its system HUVEC. Description: The compound (derived from natural HUN-7293) was tested for the ability to inhibit inducible cell adhesion molecule expression (VCAM-1) in primary human endothelial cell line (HUVEC).
For experiment [12], the system named is HUVEC. Description: The compound (synthetic) was tested for the ability to inhibit inducible cell adhesion molecule expression (E-selectin) in primary human endothelial cell line (HUVEC).
For experiment [13], the system named is HUVEC. Put plainly: The compound (synthetic) was tested for the ability to inhibit inducible cell adhesion molecule expression (ICAM-1) in primary human endothelial cell line (HUVEC).
For experiment [14], the system named is HUVEC. Description: The compound (synthetic) was tested for the ability to inhibit inducible cell adhesion molecule expression (VCAM-1) in primary human endothelial cell line (HUVEC).

*1 amine or outer side, *2 acyl side, *3 side chain or, on linkers, in order; H or OH if unused. Where a SMILES comes first, the peptide text is derived from it. [ ]: non-standard residue; d: D form. NMeTrp(1-OMe) = CN[C@@H](Cc1cn(OC)c2ccccc12)C(=O)O; Butanoyl(2R-oxy,4-CN) = N#CCC[C@@H](O)C(=O)O; X1 = CCCC[C@@H](C)C[C@H](N[*:1])C(=O)[*:2]; NMeL = CN[C@@H](CC(C)C)C(=O)O; NMeA = CN[C@@H](C)C(=O)O Where only a bound is given, the exact number is not on record here.

In the case of `CCCC[C@@H](C)C[C@@H]1NC(=O)[C@@H](CCC#N)NC(=O)[C@H](C)N(C)C(=O)[C@H](C[C@H](C)CCCC)NC(=O)[C@H](Cc2cn(OC)c3ccccc23)N(C)C(=O)[C@H](CC(C)C)NC(=O)[C@@H](CC(C)C)N(C)C1=O`, the IC50 in the experiment with HMEC [1] was greater than 3000 nM; with HMEC [2] it was 550 nM; with HUVEC [3], greater than 10000 nM; in the experiment with HUVEC [4], greater than 3000 nM; in the experiment with HUVEC [5], 560 nM.

Regarding `CCCC[C@@H](C)C[C@@H]1NC(=O)[C@H](Cc2cn(OC)c3ccccc23)N(C)C(=O)[C@H](CC(C)C)NC(=O)[C@H](CC(C)C)N(C)C(=O)[C@H](C[C@H](C)CCCC)NC(=O)[C@@H](CCC#N)NC(=O)[C@H](C)N(C)C1=O`, the IC50 in the experiment with HMEC [6] was 540 nM; in the experiment with HMEC [7], 22 nM; in the experiment on HMEC [8], 58 nM; in the experiment with HUVEC [9] it was 540 nM; with HUVEC [10], 540 nM; with HUVEC [11], 33 nM. Moreover, the half-inhibitory concentration (IC50) with HUVEC [12] was found to be 1000 nM; in the experiment with HUVEC [13], 950 nM; in the experiment with HUVEC [14], 64 nM.

`CCCC[C@@H](C)C[C@@H]1NC(=O)[C@H](Cc2cn(OC)c3ccccc23)N(C)C(=O)[C@H](CC(C)C)NC(=O)[C@H](CC(C)C)N(C)C(=O)[C@H](C[C@H](C)CCCC)NC(=O)[C@@H](CCC#N)OC(=O)[C@H](C)N(C)C1=O` (cyclo(L[NMeTrp(1-OMe)][X1][NMeA][Butanoyl(2R-oxy,4-CN)][X1][NMeL])): the IC50 came to 24 nM in the experiment on HMEC [1]; 1 nM with HMEC [2]; 44 nM in the experiment on HUVEC [3]; 26 nM with HUVEC [4]; 3 nM with HUVEC [5].

As a reminder, the IC50 is the midpoint of a concentration-inhibition curve. Read a low IC50 as greater potency.

For the origin of these results see ChEMBL document CHEMBL1133260, “Synthesis and evaluation of aza HUN-7293” (Bioorg Med Chem Lett, 2000).
